Earlier results in patent US6573290B1 (ILEX Oncology, Inc., priority 1999, dated 2003).

How the values were obtained:
tumor putrescine = settings: DFMO infusion, rat-tumor model
Ki-ras mutations = settings: AOM-treated rats; reduced from 90%
[1] = not given; remark: listed apart in the source
prostoglandin E2 (PGE2) = settings: 300 mg/day, one month phase IIa trial

NCCCC(N)(C(=O)O)C(F)F (racemic) [DFMO, 2-(difluoromethyl)-DL-ornithine]
decrease in tumor putrescine levels (tumor putrescine): 90%
number of tumors harboring Ki-ras mutations (Ki-ras mutations): 36%

Cc1ccc(-c2cc(C(F)(F)F)nn2-c2ccc(S(N)(=O)=O)cc2)cc1 [celecoxib, 4-[5-(4-methyphenyl)-3-(trifluoromethyl)-1H-pyrazol-1-yl]benzenesulfonamide]
time of peak plasma levels (after an oral dose): roughly 3 hours
effective half-life (fasted conditions): roughly 11 hours
dose excreted in feces (following a single dose): 57%
dose excreted in urine (following a single dose): 27%
delay of plasma levels with high fat meal (taken with a high fat meal): 1 to 2 h
increase in total absorption with high fat meal (taken with a high fat meal): 10-20%
protein binding (within the clinical dose range): highly protein bound

CC[C@H]1OC(=O)[C@H](C)[C@@H](O[C@H]2C[C@@](C)(OC)[C@@H](O)[C@H](C)O2)[C@H](C)[C@@H](O[C@@H]2O[C@H](C)C[C@H](N(C)C)[C@H]2O)[C@](C)(OC)C[C@@H](C)C(=O)[C@H](C)[C@@H](O)[C@]1(C)O [clarithrymycin]
adverse effect: pseudomembranous colitis [1]: 1%
adverse effect: diarrhea ([1]; in vivo): 10%

CC(C)Cc1ccc(C(C)C(=O)O)cc1 (stereo not shown) [ibuprofen]
PGE2 levels in flat mucosa (prostoglandin E2 (PGE2)): significant decrease

Cc1c(OCC(F)(F)F)ccnc1C[S+]([O-])c1nc2ccccc2[nH]1 (stereo not shown) [lansoprazole]
adverse effect: diarrhea ([1]; in vivo): 8%
adverse effect: headache ([1]; in vivo): 5%
adverse effect: nausea ([1]; in vivo): 3%

Cc1ncc([N+](=O)[O-])n1CCO [metronidazole]
adverse effect: disulfiram-like reaction with alcohol ingestion ([1]; in vivo): 20%
adverse effect: rash ([1]; in vivo): 5%

COc1ccc2[nH]c([S+]([O-])Cc3ncc(C)c(OC)c3C)nc2c1 (stereo not shown) [omeprazole]
adverse effect: dizziness ([1]; in vivo): 2%

CN1C(C(=O)Nc2ccccn2)=C(O)c2ccccc2S1(=O)=O [piroxicam]
number of tumors harboring Ki-ras mutations (Ki-ras mutations): 25%
